Common to all, as to assay: inhibition of tumour cell growth, NCI panel, 48 h
Assay [1] deals with NCI-H460 lung.
For assay [2], the system named is OVCAR-5 ovarian.
Assay [3] deals with SK-MEL-2 melanoma.
Assay [4] relates to UO-31 renal.
The subject of assay [5] is EKVX NSCLC.
In assay [6] the test system is OVCAR-3 ovarian.
The test system of assay [7] is M19-MEL melanoma.
Assay [8] has as its system HL-60(TB) leukemia.
The test system of assay [9] is MOLT-4 leukemia.
Assay [10] deals with SF-268 CNS.

“And” between values parts separate entries of the source, which are not always exact repeats. Equal entries are not always repeated.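 Five concentrations, 48 hours, 96-well plates. The concentration for 50% growth inhibition is given as GI50. TGI denotes the concentration required for complete inhibition of growth.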

Consider `CN1CCCc2nc3ccccc3n2C1`, for which the TGI in assay [1], in [2], in assay [3], in assay [4], in [5] and in assay [6] was more than 100 µM in each case. Moreover, the TGI in [7], in assay [8], in assay [9] and in assay [10] was more than 100 µM in each case.
As for `CCCCCCCCCCCCCCCC(=O)OCC1OC(n2cc(F)c(=O)[nH]c2=O)C(NC(=O)OCc2ccccc2)C(O)C1O` (stereo not given), the TGI in assay [1] came to 38.9 µM; in assay [2], 39.8 µM; in assay [3], 32 µM; in assay [4] it was 35.2 µM; in assay [5], 52.8 µM; in assay [6] it was 33.8 µM. Also, the TGI in assay [7] is 40.5 µM; in assay [8], 43.1 µM; in assay [9], 38.3 µM; in assay [10] it was 54 µM.
Consider `CCCCCCCCCCCCCC(=O)O[C@H]1CC[C@H](NC(=O)[C@H](OC)[C@H](O)[C@@H](O)[C@H](O)/C=C/C(C)C)C(=O)N(C)C1`, for which the GI50 in [1] was 0.00238 µM; in assay [2], more than 23.8 µM; in assay [3], 0.0156 µM; in [4], 0.0283 µM; in assay [5], 1.36 µM; in [6], 0.0139 µM. The GI50 in [7] was 0.00238 µM; in [8], 0.00238 µM; in assay [9], 0.00238 µM; in [10] it was 0.0235 µM. In addition, the TGI in assay [1] was 0.371 µM and 3.01 µM; in assay [2] it was 15 µM and > 23.8 µM; in assay [3], 15 µM and 6.33 µM; in [4] it was 15 µM and 8.93 µM; in [5] it was 15 µM and > 23.8 µM; in assay [6] it was 15 µM and > 23.8 µM. Besides, the TGI in [7] was 15 µM and 3.89 µM; in assay [8] it was 2.43 µM and 3.71 µM; in [9], 15 µM and 5.24 µM; in assay [10] it was 15 µM and 2.38 µM.
On to `O=c1c2ccccc2nc(-c2cccc(Cl)c2)n1NC1OC(CO)C(O)C(O)C1O` (stereo not given), for which the TGI in assay [1], in assay [2], in assay [3], in [4], in assay [5] and in [6] was more than 100 µM each time. The TGI in assay [7], in assay [8], in [9] and in assay [10] was more than 100 µM in each case.
For `CC1CCCP(=O)(c2ccccc2)CCC1` (stereo not given), the TGI in assay [1], in assay [2], in assay [3], in assay [4], in assay [5] and in [6] was more than 100 µM in each case. Besides, the TGI in assay [7], in [8], in [9] and in assay [10] was more than 100 µM throughout.
As for `O=C([O-])c1ccc([I+]c2ccccc2)cc1`, the TGI in assay [1], in assay [2], in [3], in [4], in assay [5] and in assay [6] was more than 100 µM in each case. The TGI in assay [7], in assay [8], in assay [9] and in assay [10] was more than 100 µM each time.
Take `CCc1c(OC(C)=O)c2c(NC3OC(COC(C)=O)C(OC(C)=O)C(OC(C)=O)C3OC(C)=O)nc(SC)nc2oc1=O` (stereo not given): the TGI in [1], in [2], in assay [3], in assay [4], in assay [5] and in [6] was more than 100 µM in each case. Moreover, the TGI in assay [7], in [8] and in [9] was more than 100 µM each time.
For `CC(C)(C)OC(=O)N[C@H]1CC(=O)c2ccccc2N(CC(=O)O)C1=O`, the TGI in assay [1], in assay [3], in assay [4], in assay [5], in assay [6] and in [7] was more than 100 µM throughout. Besides, the TGI in [8], in assay [9] and in assay [10] was more than 100 µM each time.
In the case of `O=[N+]([O-])c1cccnc1S(=O)(=O)c1ccccc1`, the TGI in assay [1] came out at 27.8 µM; in assay [2], 29.4 µM; in [3], 31.1 µM; in assay [4], 14 µM; in [5], 14.5 µM; in [6] it was 3.84 µM. Also, the TGI in [7] is 27.3 µM; in assay [8] it was 7.01 µM; in [9] it was more than 25.7 µM; in assay [10] it was 27.3 µM.
For the molecule `COC(=O)C1CCC(C)CC1=O` (stereo not given), the TGI in assay [1], in [2], in assay [3], in assay [4], in [5] and in [6] was more than 100 µM in each case. Moreover, the TGI in assay [7], in [8], in assay [9] and in [10] was more than 100 µM in each case.
On to `CC[n+]1c(-c2ccccc2)c2cc(N)ccc2c2ccc(N)cc21`, for which the GI50 in [1] was 1.21 µM; in [2] it was 5.67 µM; in [3] it was 1.11 µM; in assay [4], 21.4 µM and 86.9 µM and 27.2 µM; in [6], 1.61 µM; in [9] it was 2.77 µM. Further, the GI50 in assay [10] was 0.281 µM and 0.589 µM and 1.26 µM. The TGI is 12.3 µM and 22.5 µM and 22.1 µM in [1]; 57.6 µM and > 100 µM in assay [2]; 3.8 µM and 6.55 µM in assay [3]; more than 100 µM in assay [4]; 34.2 µM and 42.8 µM and > 100 µM in assay [5]; 9.84 µM and 20.4 µM and 15 µM in [6]. The TGI in assay [7] was 10.5 µM; in assay [8] it was 18 µM and 26.9 µM and 47.6 µM; in assay [9], 21.1 µM and 13 µM and 35.9 µM; in [10] it was 2.44 µM and 11.9 µM and 16.9 µM.
In the case of `CNC(=O)OCc1nc(SSc2nc(COC(=O)NC)c(COC(=O)NC)n2C)n(C)c1COC(=O)NC`, the TGI in assay [1], in [2], in [3], in [4], in assay [5] and in assay [6] was more than 100 µM in each case. The TGI in assay [7], in [8], in [9] and in [10] was more than 100 µM in each case.

These data come from PubChem BioAssay (NCI).
